“And” between values parts separate entries of the source, which are not always exact repeats. Identical values can stand only once.
Settings: Liquid, Vibrating wire viscometry

FC(F)C(F)(F)F [pentafluoroethane]
Settings | viscosity
253.99 K, 1440 kPa | 0.2707 mPa·s
253.99 K, 1450 kPa | 0.271 mPa·s
253.99 K, 1460 kPa | 0.271 mPa·s
253.99 K, 1470 kPa | 0.2711 mPa·s
253.99 K, 1480 kPa | 0.2707 mPa·s
253.99 K, 3250 kPa | 0.2794 mPa·s
253.99 K, 3280 kPa | 0.2794 mPa·s and 0.279 mPa·s and 0.2789 mPa·s
253.99 K, 5050 kPa | 0.2876 mPa·s
253.99 K, 5060 kPa | 0.2874 mPa·s
253.99 K, 5100 kPa | 0.2875 mPa·s
253.99 K, 5140 kPa | 0.2875 mPa·s
253.99 K, 7350 kPa | 0.2984 mPa·s
253.99 K, 7360 kPa | 0.2984 mPa·s
253.99 K, 7380 kPa | 0.2982 mPa·s
263.23 K, 1430 kPa | 0.2381 mPa·s
263.23 K, 1440 kPa | 0.2373 mPa·s and 0.2375 mPa·s
263.23 K, 1460 kPa | 0.2382 mPa·s
263.23 K, 1480 kPa | 0.2377 mPa·s
263.23 K, 3050 kPa | 0.2452 mPa·s
263.23 K, 3060 kPa | 0.2453 mPa·s
263.23 K, 3070 kPa | 0.2456 mPa·s
263.23 K, 5030 kPa | 0.2531 mPa·s
263.23 K, 5050 kPa | 0.2529 mPa·s
263.23 K, 5060 kPa | 0.2535 mPa·s
263.23 K, 5070 kPa | 0.2538 mPa·s
263.23 K, 5080 kPa | 0.2538 mPa·s
263.23 K, 5110 kPa | 0.2534 mPa·s
263.23 K, 7530 kPa | 0.2643 mPa·s
263.23 K, 7560 kPa | 0.2645 mPa·s
263.23 K, 7610 kPa | 0.2645 mPa·s
263.23 K, 7640 kPa | 0.2646 mPa·s
263.23 K, 9770 kPa | 0.2743 mPa·s
263.23 K, 9800 kPa | 0.274 mPa·s
263.23 K, 9820 kPa | 0.2745 mPa·s
273.08 K, 1460 kPa | 0.2076 mPa·s
273.08 K, 1480 kPa | 0.2075 mPa·s
273.08 K, 1490 kPa | 0.2074 mPa·s
273.08 K, 1500 kPa | 0.2074 mPa·s and 0.2073 mPa·s
273.08 K, 2940 kPa | 0.2147 mPa·s
273.08 K, 2950 kPa | 0.2145 mPa·s
273.08 K, 2990 kPa | 0.2145 mPa·s
273.08 K, 5020 kPa | 0.2234 mPa·s
273.08 K, 5030 kPa | 0.2229 mPa·s and 0.2233 mPa·s
273.08 K, 5040 kPa | 0.2224 mPa·s and 0.2226 mPa·s
273.08 K, 7480 kPa | 0.2324 mPa·s
273.08 K, 7490 kPa | 0.2327 mPa·s and 0.2324 mPa·s
273.08 K, 7510 kPa | 0.2324 mPa·s
273.08 K, 7520 kPa | 0.2326 mPa·s
273.08 K, 7530 kPa | 0.2324 mPa·s
273.08 K, 9680 kPa | 0.2416 mPa·s
273.08 K, 9690 kPa | 0.2419 mPa·s and 0.2421 mPa·s
273.08 K, 9710 kPa | 0.2416 mPa·s
283.29 K, 1550 kPa | 0.1781 mPa·s
283.29 K, 1580 kPa | 0.1789 mPa·s
283.29 K, 1590 kPa | 0.1788 mPa·s
283.29 K, 1600 kPa | 0.1785 mPa·s
283.29 K, 1620 kPa | 0.1783 mPa·s
283.29 K, 3000 kPa | 0.1852 mPa·s
283.29 K, 3010 kPa | 0.185 mPa·s
283.29 K, 3030 kPa | 0.1852 mPa·s
283.29 K, 3060 kPa | 0.185 mPa·s
283.29 K, 5190 kPa | 0.1957 mPa·s
283.29 K, 5220 kPa | 0.1955 mPa·s [middle of 4 runs]
283.29 K, 5230 kPa | 0.1953 mPa·s
283.29 K, 5270 kPa | 0.1956 mPa·s
283.29 K, 7590 kPa | 0.2059 mPa·s
283.29 K, 7600 kPa | 0.2057 mPa·s [middle of 5 runs]
283.29 K, 10040 kPa | 0.2155 mPa·s and 0.2159 mPa·s
283.29 K, 10050 kPa | 0.2155 mPa·s
283.29 K, 10070 kPa | 0.2155 mPa·s
283.29 K, 10080 kPa | 0.2157 mPa·s
293.13 K, 2020 kPa | 0.1577 mPa·s
293.13 K, 2030 kPa | 0.1581 mPa·s
293.13 K, 2070 kPa | 0.1583 mPa·s
293.13 K, 2100 kPa | 0.1584 mPa·s
293.13 K, 2110 kPa | 0.1583 mPa·s
293.13 K, 2140 kPa | 0.1583 mPa·s
293.13 K, 5080 kPa | 0.172 mPa·s
293.13 K, 5100 kPa | 0.1716 mPa·s
293.13 K, 5130 kPa | 0.1719 mPa·s and 0.1715 mPa·s
293.13 K, 7530 kPa | 0.1818 mPa·s and 0.1813 mPa·s and 0.1811 mPa·s
293.13 K, 9990 kPa | 0.1918 mPa·s
293.13 K, 10030 kPa | 0.1915 mPa·s
293.13 K, 10040 kPa | 0.1917 mPa·s [middle of 4 runs]
293.13 K, 10050 kPa | 0.1914 mPa·s

From the NIST ThermoML archive (doi:10.1021/je0601356)
